Data: patent publication US4609733A, “3-keto-substituted-N-pyridylindoles” (Ciba-Geigy Corporation, priority 1984, dated 1986)

Tests used:
thromboxane synthetase = target: T1, thromboxane synthetase (Homo sapiens, UniProt P24557); assay: in vitro inhibition of the thromboxane synthetase enzyme; type: biochemical
T1 construct: from tissue; host or cells: human platelets (microsomes)
T1 sequence (P24557 1-533): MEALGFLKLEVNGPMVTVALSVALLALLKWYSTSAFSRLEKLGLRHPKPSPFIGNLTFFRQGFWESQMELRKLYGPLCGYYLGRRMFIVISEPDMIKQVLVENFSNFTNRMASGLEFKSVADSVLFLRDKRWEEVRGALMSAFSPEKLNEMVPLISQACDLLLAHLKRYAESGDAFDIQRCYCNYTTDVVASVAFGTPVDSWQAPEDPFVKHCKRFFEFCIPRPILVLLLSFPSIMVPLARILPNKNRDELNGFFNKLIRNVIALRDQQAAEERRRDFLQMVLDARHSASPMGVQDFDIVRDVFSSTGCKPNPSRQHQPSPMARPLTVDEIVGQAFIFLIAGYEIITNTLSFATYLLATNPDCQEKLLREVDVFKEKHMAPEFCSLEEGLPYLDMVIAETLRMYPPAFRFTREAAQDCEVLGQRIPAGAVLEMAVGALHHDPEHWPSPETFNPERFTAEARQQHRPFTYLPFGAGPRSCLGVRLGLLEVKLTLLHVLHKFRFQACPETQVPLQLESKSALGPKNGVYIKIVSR
Description: Res. Comm. 74, 1432 (1977). The testing procedure is essentially carried out as described in U.S. Pat. No. 4,460,777.

[1] = target: T2, prostaglandin cyclooxygenase (Bos taurus, UniProt O62664); assay: in-vitro effect on prostaglandin cyclooxygenase; type: biochemical; conditions: read-out: IC50 for cyclooxygenase inhibition
T2 construct: from tissue; host or cells: bovine seminal vesicles (microsomes)
T2 sequence (O62664 25-600): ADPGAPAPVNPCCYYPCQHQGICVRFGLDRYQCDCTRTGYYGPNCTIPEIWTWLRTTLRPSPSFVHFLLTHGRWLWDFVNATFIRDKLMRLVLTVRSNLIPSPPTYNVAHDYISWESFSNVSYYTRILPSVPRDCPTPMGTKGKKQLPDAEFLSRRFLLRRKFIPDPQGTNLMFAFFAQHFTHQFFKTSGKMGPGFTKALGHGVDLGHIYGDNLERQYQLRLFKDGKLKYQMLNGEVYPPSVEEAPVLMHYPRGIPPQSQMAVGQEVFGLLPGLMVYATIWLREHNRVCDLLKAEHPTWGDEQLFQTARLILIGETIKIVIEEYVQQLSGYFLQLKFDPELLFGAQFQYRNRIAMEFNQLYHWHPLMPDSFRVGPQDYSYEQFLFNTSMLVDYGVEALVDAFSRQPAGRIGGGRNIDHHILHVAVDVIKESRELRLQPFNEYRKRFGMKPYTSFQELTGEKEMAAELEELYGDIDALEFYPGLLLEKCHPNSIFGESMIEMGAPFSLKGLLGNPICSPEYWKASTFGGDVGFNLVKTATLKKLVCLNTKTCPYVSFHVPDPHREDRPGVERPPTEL
Procedure: The in-vitro effect on prostaglandin cyclooxygenase is measured by a modification of the method of Takeguchi et al. described in Biochemistry 10, 2372 (1971); the testing procedure is described in U.S. Pat. No. 4,460,777.

Row | IC50 (thromboxane synthetase) | IC50 [1] | SMILES
1 | ~400 nM |  | O=C(O)CCCC(=O)c1cn(-c2cccnc2)c2ccccc12 [Example 2, 3-(1-oxo-4-carboxybutyl)-N-(3-pyridyl)-indole]
2 |  | > 1 mM | O=C(O)CCCCc1cn(-c2cccnc2)c2ccccc12 [3-(4-carboxybutyl)-N-(3-pyridyl)indole, 3-(4-carboxybutyl)-N-(3-pyridyl)-indole]
